Experimental data: patent publication US8324245B2, “Quinoline derivative and quinazoline derivative inhibiting self-phosphorylation of hepatocytus proliferator receptor, and medicinal composition containing the same” (Kyowa Hakko Kirin Co., Ltd., priority 2001, dated 2012)

What was measured:
[1] = target: T1, met (HGF receptor) in human gastric cancer cells MKN45 (Homo sapiens, UniProt P08581); assay: Inhibitory activity against met-autophosphorylation using ELISA method (2), MKN45 cells, HGF-independent; format: cell-based
T1 construct: endogenous in cells; host or cells: MKN45 human gastric cancer cells
Method in brief: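 MKN45 cells, 3×10^4 per well in RPMI with 0.1% FCS overnight, were exposed to compound in DMSO for 1 h at 37 °C without HGF. Lysates were captured on anti-phosphotyrosine (PY20) plates, Met detected with anti-Met and peroxidase secondary antibody, absorbance at 450 nm.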

[2] = tested on: Human gastric cancer cells (MKN 45); assay: Tumor growth inhibitory activity against various human tumor cells in nude mice: MKN 45; format: in vivo; conditions: Mus musculus, MKN-45, po, 120 h, MKN45, Oral, 5 days; read-out: TGIR
Description: Human gastric cancer cells (MKN 45) (obtained from RIKEN), human brain tumor cells (U87MG) (obtained from ATCC), human pancreatic cancer cells (KP4) (obtained from RIKEN), human pancreatic cancer cells (SUIT-2) (obtained from National Kyushu Cancer Center), and human signet-ring type gastric cancer cells (NUGC-4) (obtained from RIKEN), or human lung cancer cells (LC6) (obtained from Central Laboratories for Experimental Animals) were transplanted into nude mice. […] The test compound suspended in 0.5% methylcellulose was orally administered once or twice a day for 5 days. Only 0.5% methylcellulose was administered to the control group in the manner as in the test groups. Alternatively, the test compound dissolved in physiological saline (with a 1 N aqueous hydrochloric acid solution added thereto) was intraveneously injected once a day for 5 days, and only physiological saline (with a 1 N aqueous hydrochloric acid solution added thereto) was administered to the control group in the same manner as in the test groups. The tumor growth inhibition rate (TGIR) was calculated as follows: The tumor growth inhibition rate (TGIR)=(1−TX/CX)×100 wherein CX represents the relative tumor volume at the 5th day for the control group when the tumor volume at the day of the start of the administration was presumed to be 1; and TX represents the relative tumor volume for test compound administration groups.

T1 sequence (P08581 25-1390): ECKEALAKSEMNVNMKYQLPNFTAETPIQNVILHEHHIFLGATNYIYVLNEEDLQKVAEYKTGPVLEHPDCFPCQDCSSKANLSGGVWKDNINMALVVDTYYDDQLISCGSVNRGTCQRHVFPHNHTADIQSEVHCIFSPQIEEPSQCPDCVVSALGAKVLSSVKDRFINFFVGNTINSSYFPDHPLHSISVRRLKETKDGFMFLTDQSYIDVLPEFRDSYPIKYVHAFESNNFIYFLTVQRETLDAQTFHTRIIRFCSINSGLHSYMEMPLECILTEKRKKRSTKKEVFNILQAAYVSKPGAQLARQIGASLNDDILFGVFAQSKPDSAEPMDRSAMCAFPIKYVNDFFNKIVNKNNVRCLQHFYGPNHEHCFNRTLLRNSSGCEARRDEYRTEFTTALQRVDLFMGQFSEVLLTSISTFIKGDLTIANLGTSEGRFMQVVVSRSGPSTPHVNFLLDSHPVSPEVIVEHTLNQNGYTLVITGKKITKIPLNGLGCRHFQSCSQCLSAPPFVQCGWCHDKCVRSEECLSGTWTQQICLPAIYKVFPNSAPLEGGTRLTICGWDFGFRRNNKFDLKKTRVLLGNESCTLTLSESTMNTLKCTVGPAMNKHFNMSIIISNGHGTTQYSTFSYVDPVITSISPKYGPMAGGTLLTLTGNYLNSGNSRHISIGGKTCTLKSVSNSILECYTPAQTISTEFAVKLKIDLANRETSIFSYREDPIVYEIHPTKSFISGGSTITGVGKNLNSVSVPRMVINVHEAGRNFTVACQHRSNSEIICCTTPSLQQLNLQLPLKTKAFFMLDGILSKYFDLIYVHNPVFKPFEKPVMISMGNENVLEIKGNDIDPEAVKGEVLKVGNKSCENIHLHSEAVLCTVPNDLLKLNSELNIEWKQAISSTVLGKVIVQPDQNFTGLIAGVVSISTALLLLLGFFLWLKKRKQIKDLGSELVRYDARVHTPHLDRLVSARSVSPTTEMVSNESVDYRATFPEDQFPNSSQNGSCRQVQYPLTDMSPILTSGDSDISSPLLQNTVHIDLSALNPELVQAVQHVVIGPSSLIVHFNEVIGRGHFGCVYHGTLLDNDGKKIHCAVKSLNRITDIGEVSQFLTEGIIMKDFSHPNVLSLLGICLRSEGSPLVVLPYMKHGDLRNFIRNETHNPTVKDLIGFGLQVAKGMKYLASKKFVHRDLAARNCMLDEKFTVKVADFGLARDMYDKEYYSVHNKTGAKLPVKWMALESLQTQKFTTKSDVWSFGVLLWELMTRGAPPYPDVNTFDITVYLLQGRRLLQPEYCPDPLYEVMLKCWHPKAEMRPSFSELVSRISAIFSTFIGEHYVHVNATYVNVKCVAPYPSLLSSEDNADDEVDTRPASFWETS

Structure (SMILES)	IC50 [1]	inhibition in vivo at 30 mg/kg [2]	inhibition in vivo at 25 mg/kg [2]
COc1cc2c(Oc3ccc(NC(=S)NC(=O)Cc4ccccc4F)cc3F)ccnc2cc1OCCCN1CCOCC1 [Example 288, 1-{3-Fluoro-4-[6-methoxy-7-(3-morpholin-4-yl-propoxy)-quinolin-4-yloxy]-phenyl}-3-[2-(2-fluoro-phenyl)-acetyl]-thiourea]	22.6 nM	64%	
COc1cc2c(Oc3ccc(NC(=S)NC(=O)Cc4cccc(F)c4)cc3Cl)ccnc2cc1OCCCN1CCOCC1 [Example 299, 1-{3-Chloro-4-[6-methoxy-7-(3-morpholin-yl-propoxy)-quinolin-4-yloxy]-phenyl}-3-[2-(3-fluoro-phenyl)-acetyl]-thiourea]	43.5 nM		14%
COc1cc2c(Oc3ccc(NC(=S)NC(=O)Cc4ccccc4Cl)cc3F)ccnc2cc1OCC(O)CN1CCOCC1 (stereo not drawn) [Example 314, 1-[2-(2-Chloro-phenyl)-acetyl]-3-{3-fluoro-4-[7-(2-hydroxy-3-morpholin-4-yl-propoxy)-6-methoxy-quinolin-4-yloxy]-phenyl}-thiourea]	23.2 nM	38%	
COc1cc2c(Oc3ccc(NC(=S)NC(=O)Cc4ccccc4F)cc3F)ccnc2cc1OCC(O)CN1CCOCC1 (stereo not drawn) [Example 315]	21 nM	36%	
COc1cc2c(Oc3ccc(NC(=S)NC(=O)Cc4ccccc4Cl)cc3F)ccnc2cc1OCC(O)CN1CCCCC1 (stereo not drawn) [Example 316, 1-[2-(2-Chloro-phenyl)-acetyl]-3-{3-fluoro-4-[7-(2-hydroxy-3-piperidin-1-yl-propoxy)-6-methoxy-quinolin-4-yloxy]-phenyl}-thiourea]	188 nM		
COc1cc2c(Oc3ccc(NC(=S)NC(=O)Cc4ccccc4Cl)cc3F)ccnc2cc1OCC(O)CN1CCCC1 (stereo not drawn) [Example 317, 1-[2-(2-Chloro-phenyl)-acetyl]-3-{3-fluoro-4-[7-(2-hydroxy-3-pyrrolidin-1-yl-propoxy)-6-methoxy-quinolin-4-yloxy]-phenyl}-thiourea]	42.2 nM		
COc1cc2c(Oc3ccc(NC(=S)NC(=O)Cc4ccccc4F)cc3F)ccnc2cc1OCC(O)CN1CCCCC1 (stereo not drawn) [Example 318, 1-(3-Fluoro-4-[7-(2-hydroxy-3-piperidin-1-yl-propoxy)-6-methoxy-quinolin-4-yloxy]-phenyl)-3-[2-(2-fluoro-phenyl)-acetyl]-thiourea]	28.3 nM		
COc1cc2c(Oc3ccc(NC(=S)NC(=O)Cc4ccccc4F)cc3F)ccnc2cc1OCC(O)CN1CCCC1 (stereo not drawn) [Example 319, 1-{3-Fluoro-4-[7-(2-hydroxy-3-pyrrolidin-1-yl-propoxy)-6-methoxy-quinolin-4-yloxy]-phenyl}-3-[2-(2-fluoro-phenyl)-acetyl]-thiourea]	127 nM		
COc1cc2c(Oc3ccc(NC(=S)NC(=O)Cc4cccc(Cl)c4)cc3F)ccnc2cc1OCC(O)CN1CCCCC1 (stereo not drawn) [Example 321, 1-[2-(3-Chloro-phenyl)-acetyl]-3-{3-fluoro-4-[7-(2-hydroxy-3-piperidin-1-yl-propoxy)-6-methoxy-quinolin-4-yloxy]-phenyl}-thiourea]	125 nM		
COc1cc2c(Oc3ccc(NC(=S)NC(=O)Cc4cccc(F)c4)cc3F)ccnc2cc1OCC(O)CN1CCCCC1 (stereo not drawn) [Example 324, 1-{3-Fluoro-4-[7-(2-hydroxy-3-piperidin-1-yl-propoxy)-6-methoxy-quinolin-4-yloxy]-phenyl}-3-[2-(3-fluoro-phenyl)-acetyl]-thiourea]	23.4 nM		
COc1cc2c(Oc3ccc(NC(=S)NC(=O)Cc4ccc(Cl)cc4)cc3F)ccnc2cc1OCC(O)CN1CCCCC1 (stereo not drawn) [Example 327, 1-[2-(4-Chloro-phenyl)-acetyl]-3-{3-fluoro-4-[7-(2-hydroxy-3-piperidin-1-yl-propoxy)-6-methoxy-quinolin-4-yloxy]-phenyl}-thiourea]	798 nM		
COc1cc2c(Oc3ccc(NC(=S)NC(=O)Cc4ccc(Cl)cc4)cc3F)ccnc2cc1OCC(O)CN1CCCC1 (stereo not drawn) [Example 328, 1-[2-(4-Chloro-phenyl)-acetyl]-3-{3-fluoro-4-[7-(2-hydroxy-3-pyrrolidin-1-yl-propoxy)-6-methoxy-quinolin-4-yloxy]-phenyl}-thiourea]	43.2 nM		
COc1cc2c(Oc3ccc(NC(=S)NC(=O)Cc4ccc(F)cc4)cc3F)ccnc2cc1OCC(O)CN1CCCCC1 (stereo not drawn) [Example 329, 1-{3-Fluoro-4-[7-(2-hydroxy-3-piperidin-1-yl-propoxy)-6-methoxy-quinolin-4-yloxy]-phenyl}-3-[2-(4-fluoro-phenyl)-acetyl]-thiourea]	51.8 nM		
COc1cc2c(Oc3ccc(NC(=S)NC(=O)Cc4ccc(F)cc4)cc3F)ccnc2cc1OCC(O)CN1CCCC1 (stereo not drawn) [Example 330, 1-{3-Fluoro-4-[7-(2-hydroxy-3-pyrrolidin-1-yl-propoxy)-6-methoxy-quinolin-4-yloxy]-phenyl}-3-[2-(4-fluoro-phenyl)-acetyl]-thiourea]	20.6 nM		
COc1cc2c(Oc3ccc(NC(=S)NC(=O)Cc4ccccc4)cc3F)ccnc2cc1OCC(O)CN1CCCCC1 (stereo not drawn) [Example 331]	22 nM	40%	
COc1cc2c(Oc3ccc(NC(=S)NC(=O)Cc4ccc(C)cc4)cc3F)ccnc2cc1OCC(O)CN1CCOCC1 (stereo not drawn) [Example 335]	23.6 nM		
COc1cc2c(Oc3ccc(NC(=O)NC(=O)Cc4ccc(F)cc4)cc3F)ccnc2cc1OCC(O)CN1CCOCC1 (stereo not drawn) [Example 336, 1-{3-Fluoro-4-[7-(2-hydroxy-3-morpholin-1-yl-propoxy)-6-methoxy-quinolin-4-yloxy]-phenyl}-3-[2-(4-fluoro-phenyl)-acetyl]-urea]	32.8 nM		
COc1cc2c(Oc3ccc(NC(=O)NC(=O)Cc4ccccc4)cc3F)ccnc2cc1OCC(O)CN1CCOCC1 (stereo not drawn) [Example 337, 1-{3-Fluoro-4-[7-(2-hydroxy-3-morpholin-1-yl-propoxy)-6-methoxy-quinolin-4-yloxy]-phenyl}-3-(2-phenyl-acetyl)-urea]	22 nM		

The next lines start with results.

IC50 [1]	Structure (SMILES)	inhibition in vivo at 30 mg/kg [2]	inhibition in vivo at 25 mg/kg [2]
20.4 nM	COc1cc2c(Oc3ccc(NC(=S)NC(=O)Cc4ccc(F)cc4)cc3F)ccnc2cc1OCCN1CCOCC1 [Example 277, 1-{3-Fluoro-4-[6-methoxy-7-(2-morpholin-4-yl-ethoxy)-quinolin-4-yloxy]-phenyl}-3-[2-(4-fluorophenyl)-acetyl]-thiourea]	17%	
16.6 nM	COc1cc2c(Oc3ccc(NC(=S)NC(=O)Cc4ccc(F)cc4)cc3F)ccnc2cc1OCCN1CCC(CO)CC1 [Example 282, 1-(3-Fluoro-4-{7-[2-(4-hydroxymethyl-piperidin-1-yl)ethoxy]-6-methoxy-quinolin-4-yloxy}-phenyl)-3-[2-(4-fluoro-phenyl)-acetyl]-thiourea]	13%	
18.5 nM	COc1cc2c(Oc3ccc(NC(=O)NC(=O)Cc4ccccc4)c(F)c3)ccnc2cc1OCCCN1CCC(CO)CC1 [Example 311, 1-(2-Fluoro-4-{7-[3-(4-hydroxymethyl-piperidin-1-yl)-propoxy]-6-methoxy-quinolin-4-yloxy}-phenyl)-3-phenyl-acetyl-urea]		
19.1 nM	COc1cc2c(Oc3ccc(NC(=S)NC(=O)Cc4ccccc4)cc3F)ccnc2cc1OCC(O)CN1CCOCC1 (stereo not drawn) [Example 312, 1-{3-Fluoro-4-[7-(2-hydroxy-3-morpholin-4-yl-propoxy)-6-methoxy-quinolin-4-yloxy]-phenyl}-3-phenylacetyl-thiourea]	75%	
14 nM	COc1cc2c(Oc3ccc(NC(=S)NC(=O)Cc4cccc(Cl)c4)cc3F)ccnc2cc1OCC(O)CN1CCOCC1 (stereo not drawn) [Example 320, 1-[2-(3-Chloro-phenyl)-acetyl]-3-{3-fluoro-4-[7-(2-hydroxy-3-morpholin-4-yl-propoxy)-6-methoxy-quinolin-4-yloxy]-phenyl}-thiourea]	20%	
< 10 nM	COc1cc2c(Oc3ccc(NC(=S)NC(=O)Cc4cccc(F)c4)cc3F)ccnc2cc1OCC(O)CN1CCOCC1 (stereo not drawn) [Example 323, 1-{3-Fluoro-4-[7-(2-hydroxy-3-morpholin-4-yl-propoxy)-6-methoxy-quinolin-4-yloxy]-phenyl}-3-[2-(3-fluoro-phenyl)-acetyl]-thiourea]	34%	
18.5 nM	COc1cc2c(Oc3ccc(NC(=S)NC(=O)Cc4cccc(F)c4)cc3F)ccnc2cc1OCC(O)CN1CCCC1 (stereo not drawn) [Example 325, 1-{3-Fluoro-4-[7-(2-hydroxy-3-pyrrolidin-1-yl-propoxy)-6-methoxy-quinolin-4-yloxy]-phenyl}-3-[2-(3-fluoro-phenyl)-acetyl]-thiourea]		
13.1 nM	COc1cc2c(Oc3ccc(NC(=S)NC(=O)Cc4ccc(Cl)cc4)cc3F)ccnc2cc1OCC(O)CN1CCOCC1 (stereo not drawn) [Example 326, 1-[2-(4-Chloro-phenyl)-acetyl]-3-{3-fluoro-4-[7-(2-hydroxy-3-morpholin-4-yl-propoxy)-6-methoxy-quinolin-4-yloxy]-phenyl}-thiourea]	17%	
14.2 nM	COc1cc2c(Oc3ccc(NC(=S)NC(=O)Cc4ccccc4)cc3F)ccnc2cc1OCC(O)CN1CCCC1 (stereo not drawn) [Example 332, 1-{3-Fluoro-4-[7-(2-hydroxy-3-pyrrolidin-1-yl-propoxy)-6-methoxy-quinolin-4-yloxy]-phenyl}-3-(2-phenyl-acetyl)-thiourea]	14%	
